Structures can show the parent of a compound that is named as a salt.

In the assay the target is HIF prolyl hydroxylase. Nature of the assay: Inhibition of the activity of HIF prolyl hydroxylase (VBC complex binding to hydroxylated peptide substrate). The format is biochemical. The conditions noted are these: cell lysate containing prolyl hydroxylase. On the procedure: Hydroxylated HIF bonds specifically to the von Hippel-Lindau protein-elongin B-elongin C complex (VBC complex). This interaction occurs only if HIF is hydroxylated on a conserved prolyl radical. It is the basis for the biochemical determination of HIF prolyl hydroxylase activity. The test is carried out as described [Oehme F., Jonghaus W., Narouz-Ott L., Huetter J., Flamme I., Anal. Biochem. 330 (1), 74-80 (2004)]:
A clear 96-well microtiter plate coated with NeutrAvidin HBC (Pierce) is incubated with blocker casein for 30 minutes. The plate is then washed three times with 200 μl each time of wash buffer (50 mM Tris, pH 7.5, 100 mM NaCl, 10% (v/v) blocker casein, 0.05% (v/v) Tween 20) per well. The peptide biotin-DLDLEMLAPYIPMDDDFQL (Eurogentec, 4102 Seraing, Belgium) is added in a concentration of 400 nM in 100 μl wash buffer. This peptide serves as a substrate for the prolyl hydroxylation and is bonded to the microtiter plate. After incubation for 60 minutes, the plate is washed three times with wash buffer, incubated with 1 mM biotin in blocker casein for 30 minutes and then washed again three times with wash buffer.
To carry out the prolyl hydroxylase reaction, the peptide substrate bonded to the plate is incubated with a cell lysate containing prolyl hydroxylase for 1 to 60 minutes. The reaction takes place in 100 μl reaction buffer (20 mM Tris, pH 7.5, 5 mM KCl, 1.5 mM MgCl2, 1 μM-1 mM 2-oxoglutarate, 10 μM FeSO4, 2 mM ascorbate) at room temperature. The reaction mixture moreover contains various concentrations of the prolyl hydroxylase inhibitor to be tested. The test substance is preferably, but not exclusively, employed at concentrations of between 1 nM and 100 μM. The reaction is stopped by washing the plate three times with wash buffer.
For quantitative determination of the prolyl hydroxylation, a fusion protein which contains both thioredoxin from E. coli and the VBC complex in 80 μl bonding buffer (50 mM Tris, pH 7.5, 120 mM NaCl) is added. After 15 minutes, 10 μl of a solution of polyclonal anti-thioredoxin antibodies from rabbit in bonding buffer are added. After a further 30 minutes, 10 μl of a solution of anti-rabbit immunoglobulin coupled to horseradish peroxidase in bonding buffer are added. After incubation at room temperature for 30 minutes, the plate is washed three times with wash buffer in order to remove non-bonded VBC complex and antibodies. To determine the amount of bonded VBC complex, the plate is incubated with TMB for 15 minutes. The color reaction is ended by addition of 100 μl 1 M sulfuric acid. The amount of bonded VBC complex is determined by measurement of the optical density at 450 nm. It is proportional to the amount of hydroxylated proline in the peptide substrate.
Alternatively, a VBC complex coupled to europium (Perkin Elmer) can be used for detection of the prolyl hydroxylation. In this case, the amount of bonded VBC complex is determined by the fluorescence with respect to time. The use of VBC complex labeled with [^35S]-methionine is moreover possible. For this, the radioactively labeled VBC complex can be prepared by in vitro transcription-translation in reticulocyte lysate.
Representative IC50 values for the embodiment examples are reproduced in the following Table 1: […]

`CCN(CC)CCCCCCNc1cc(-n2[nH]cc(-c3cccnc3)c2=O)ncn1` [Example 55, 2-(6-{[6-(Diethylamino)hexyl]amino}pyrimidin-4-yl)-4-pyridin-3-yl-1,2-dihydro-3H-pyrazol-3-one] had a half-inhibitory concentration (IC50) of 1.7 µM.

For `O=c1c(-c2cccnc2)c[nH]n1-c1nnc(-c2ccc(Cl)cc2)s1` [Example 7], the IC50 amounted to 0.88 µM. Against the preceding molecule, the IC50 is about 1.9-fold lower.

For the molecule `CN(C)CCOc1cc(-n2[nH]cc(-c3cccnc3)c2=O)ncn1` [Example 26, 2-{6-[2-(Dimethylamino)ethoxy]pyrimidin-4-yl}-4-pyridin-3-yl-1,2-dihydro-3H-pyrazol-3-one hydrochloride], the IC50 turned out to be 4 µM. Against the preceding molecule, the IC50 is about 4.5-fold higher.

In the case of `O=c1c(-c2ccc(Cl)nc2)c[nH]n1-c1cc(N2CCOCC2)ncn1` [Example 16], the IC50 is 0.48 µM. This IC50 is about 8.3-fold lower than that of the molecule before.

`O=c1c(-c2cccnc2)c[nH]n1-c1nc2ccccc2s1` [Example 6] gave an IC50 of 2.8 µM. This IC50 is about 5.8-fold higher than that of the molecule before.

`O=c1c(-c2cccnc2)c[nH]n1-c1ccc(-c2ccccc2)nn1` [Example 22, 2-(6-Phenylpyridazin-3-yl)-4-pyridin-3-yl-1,2-dihydro-3H-pyrazol-3-one hydrochloride]: the IC50 stood at 2.7 µM.

Regarding `Cc1cc(C)n(-c2cc(-n3[nH]cc(-c4cccnc4)c3=O)ncn2)n1` [Example 3], the IC50 came out at 0.7 µM. Against the preceding molecule, the IC50 is about 3.9-fold lower.

Consider `N#Cc1cncc(-c2c[nH]n(-c3cc(N4CCCCC4)ncn3)c2=O)c1` [Example 44, 5-[3-oxo-2-(6-piperidin-1-ylpyrimidin-4-yl)-2,3-dihydro-1H-pyrazol-4-yl]pyridine-3-carbonitrile hydrochloride], for which the IC50 was 1.12 µM.

Regarding `COCCN1CCN(c2cc(-n3[nH]cc(-c4cccnc4)c3=O)ncn2)CC1` [Example 28, 2-{6-[4-(2-Methoxyethyl)piperazin-1-yl]pyrimidin-4-yl}-4-pyridin-3-yl-1,2-dihydro-3H-pyrazol-3-one dihydrochloride], the IC50 turned out to be 0.89 µM.

`O=c1c(-c2cccnc2)c[nH]n1-c1cnccn1` [Example 46, 2-Pyrazin-2-yl-4-pyridin-3-yl-1,2-dihydro-3H-pyrazol-3-one hydrochloride]: the IC50 worked out at 0.93 µM. This IC50 and that of the molecule before are within 1.5-fold of each other.

`O=c1c(-c2cccnc2)c[nH]n1-c1cc(N2CCOCC2)ncn1` [Example 18, 2-(6-Morpholin-4-yl-pyrimidin-4-yl)-4-pyridin-3-yl-1,2-dihydro-3H-pyrazol-3-one hydrochloride] had an IC50 of 0.18 µM.

For the origin of these results see patent publication US8524699B2, “Substituted dihydropyrazolones and use thereof as HIF-prolyl-4-hydroxylase inhibitors” (Bayer Intellectual Property GmbH, priority 2006, dated 2013).
